Results published in a melting point compilation (Tetko et al.; mined from patent text by program, amines drawn as free bases though some values may be those of a salt).

Compound	melting point [°C]
CNC(=O)n1nc(Oc2c(F)cc(C(F)(F)F)cc2Cl)cc1C	87 to 88
CC(Oc1ccc(Oc2ccc(C(F)(F)F)cc2Cl)cc1)C(=O)O (stereo not given)	90 to 92
CC(=O)OC1CSC(Oc2cncc(S(=O)(=O)c3ccc(F)cc3)c2)C(OC(C)=O)C1OC(C)=O (stereo not given)	128
COc1ccc2ncc(Cl)c(OC[C@@H]3CC[C@@H](NC(=O)OC(C)(C)C)CO3)c2c1	173
CC1=C(C(=O)N(C)C)C(c2ccccc2)C(C(N)=O)=C(N)N1 (stereo not given)	236
Cc1c(S(=O)c2cc(Cl)c(Cl)cc2Cl)cc(C(C)(C)C)c(O)c1C(=O)Nc1ccc([N+](=O)[O-])cc1Cl (stereo not given)	245 to 246
O=C(C1CC1)N1CC[C@H](c2ccccc2)[C@H](O)C1 (relative stereo)	128 to 129
COC(=O)CCCCCCCCOC1OC(CO)C(O)C(O)C1O (stereo not given)	104 to 105
CC(=O)Nc1ccc(OCC(O)CN(C)C)c(NC(C)=O)c1 (stereo not given)	118 to 120
CCCn1cc(C(=O)OCC)c(=O)c2ccoc21	130
CSc1c(C)cc(O)c(C(=O)Nc2ccc(S(=O)(=O)C(F)(F)F)cc2Cl)c1C	201 to 202
NNc1nc2ccc(C(F)(F)F)cc2n(OCc2ccccc2)c1=O	174 to 176
CCC1(CC)c2ccc(C)cc2C(CC)(CC)N1OC(C)=O	76 to 78
NC(=O)COCC(N)=S	164 to 168
Cc1cccc2nc(C(S)c3ncnc4[nH]cnc34)n(-c3ccccc3F)c(=O)c12 (stereo not given)	152
CC(=NNC(=N)N)c1cccc(OCc2ccc3ccccc3c2)c1	176 to 178
CCOC(=O)C1CCCN1C(=O)c1cc2c(cc1[N+](=O)[O-])OCO2 (stereo not given)	94
O=C(CCCN1CCN(c2cc3ccccc3cn2)CC1)c1ccc(F)cc1	148 to 150
CCn1cc(C(=O)O)c(=O)c2cc(F)c(N3CCC(CNC)C3)cc21 (stereo not given)	247 to 250
NC(=O)C(=Cc1c[nH]c2ncccc12)c1ccccc1	222 to 224
O=C(O)CC1CCCc2c1n(Cc1ccc(Cl)cc1)c1c(F)cccc21 (stereo not given)	94 to 94.5
Oc1ccc2c(c1CNc1ccccc1)CCCO2	105 to 107
CS(=O)(=O)c1ccc(-n2nc(C(F)(F)F)cc2-c2ccc(-c3ccco3)c(Cl)c2)cc1	143 to 145
Cc1c(Br)c2cnnc(OCc3ccccc3)c2n1Cc1ccccc1	122 to 123
COc1ccccc1-n1c(-c2sc(Nc3ccc(Cl)cc3)nc2C)nc2ccccc2c1=O	225 to 226

Compound	melting point [°C]
COc1cc(Cl)c(C(=O)Nc2ccc(C(C)(C)C#N)cc2)cc1OC	142 to 144
CC(=O)Nc1c(C(C)=O)[nH]c2cc(Cl)ccc12	262 to 267
CCOC(=O)c1c(C)cc2nc(C(C)C)n(-c3ccccc3Cl)c(=O)c2c1C	115 to 116
CC(C)c1cccc(C(C)C)c1NC(=O)C1CCCC(CCCCCOc2ccccc2)(c2ccccc2)C1=O (stereo not given)	150 to 153
CCCCCCCCCCCCCCCCCC(=O)NCC(COCCCCCCCCCCCCCCCC)COCc1ccccc1 (stereo not given)	56 to 57
O=c1c2cc([N+](=O)[O-])ccc2cc2n1CCCS2(=O)=O	242 to 244
CC(C)(c1ccc(N)c([N+](=O)[O-])c1)c1ccc(N)c([N+](=O)[O-])c1	207 to 210
O=C(Cn1c(-c2ccc(Cl)cc2)nc2cccnc21)NC1CCCC1	260 to 261
Cc1n[nH]c2c(C(=O)NC(C)C)c(NC(=O)c3cc(C(F)(F)F)nn3-c3ncccc3Cl)c(Cl)cc12	235 to 236
CCOC(=O)c1ccc(NCCc2ccc(Cl)cc2)cc1	75 to 77
CC(=O)NCc1ccc(CN2CCN(c3ccncc3)CC2)cc1	164 to 166
Cc1ccc(S(=O)(=O)OC[C@@H](O)Cc2cc3ccccc3[nH]2)cc1	96 to 97
COc1ccccc1-n1c(-c2ccc(C=C(C#N)C#N)s2)ccc1-c1ccc(C(C#N)=C(C#N)C#N)s1	> 300
COC(=O)C1=C(C)NC(C2CCCCC2)=C(S(=O)(=O)N(C)C)C1c1cccc([N+](=O)[O-])c1 (stereo not given)	185 to 188
CN1C(=O)CCC1(O)c1ccc(Cl)c(N)c1 (stereo not given)	154
Brc1ccccc1Cc1nc(-c2ccncc2)cs1	114 to 116
CCOC(=O)COc1ccc(C=O)cc1OC	56 to 59
COc1ccc(OC)c(-c2cc(F)cc3c2OC(CN)C3)c1 (stereo not given)	120 to 122
CSCCn1cc(Cl)nc(N2CCc3cc(Cl)cc(Cl)c32)c1=O	127 to 128
CCNC(=O)Cc1ccc2ccn(C3CCN(CCc4ccccc4F)CC3)c2c1	147 to 149
COCCN(c1cccc2cc(C(=O)NCCSC(c3ccccc3)(c3ccccc3)c3ccccc3)[nH]c12)S(=O)(=O)c1cccs1	65 to 66
CCOC(=O)CCCSc1nccc(NC(N)=NCC(F)(F)F)n1	120 to 122
Nc1ccc(-c2noc(-c3cnn4c(C(F)F)cc(-c5ccc(Cl)cc5)nc34)n2)cn1	254
O=S=c1cc(-c2ccc(O)cc2)ss1	118 to 124
O=C(Nc1ccccc1)C1=C(O)c2ccc3ccccc3c2S(=O)(=O)N1	260 to 262

Compound	melting point [°C]
CC(C)(C)C(=O)COc1ccc(S(=O)(=O)c2ccccc2)cc1	105 to 108
COc1cc(OC(c2ccccc2)c2ccccc2)ccc1/C=C/c1cc(/C=C/c2ccc3cc[nH]c3c2)[nH]n1	114 to 119
CC(C(=O)O)c1ccc2cc(OCc3nc4ccccc4s3)ccc2c1 (stereo not given)	169 to 171
CSc1ccc(C2=C(c3cccc(F)c3)C(=O)C(C)(C)O2)cc1	106
COc1cc(OC)c2c(=O)[nH]c(-c3cccc(-c4ccc(S(C)=O)cc4)n3)nc2c1 (stereo not given)	281 to 282
Cc1oc(-c2ccccc2)nc1CCOS(C)(=O)=O	88.2 to 89
C=C(F)C[C@@H](C(=O)O)N(Cc1cccnc1)S(=O)(=O)c1ccc(OC)cc1	172
CC(C)(C)N(N=O)C1CCCCC1	87
O=S1CCOCC1c1ccc(Cl)c(Cl)c1 (stereo not given)	100 to 103
COC(=O)c1cc(C(=O)CBr)cs1	112 to 114
Cc1nc2cnccc2n1-c1ccc(O)cc1F	294
COc1ccc(C(=O)C#N)cc1	51 to 53
O=c1ccc(S(=O)(=O)c2cc3ccccc3[nH]2)n[nH]1	248 to 249
COC(=O)C(Cl)=C(NC1CC1)C(C(=O)OC)C(=O)C(F)F (stereo not given)	55 to 57
CNS(=O)(=O)c1ccc2c(c1)S(=O)(=O)NC1CCCN21 (stereo not given)	244 to 245
C=CCc1ccc(C=CC(=O)c2ccc(OCC=C(C)C)cc2OCC(=O)O)cc1	125 to 126
COc1ccc(NS(=O)(=O)c2ccc(OC)c3c2c2ccccc2n3C=O)cc1	190 to 192
Cc1ccc(S(=O)(=O)OCCc2cccc3[nH]cc(S(=O)(=O)c4ccccc4)c23)cc1	58 to 60
CC(C)(C)OC(=O)N1Cc2c(Br)sc(Br)c2C1	144 to 145
CCOC(=O)c1csc(NC(=O)c2cc(C(C)(C)C)c(O)c(C(C)(C)C)c2)n1	233 to 235
COC(=O)C(=O)c1ccc(OCCOc2cc3ccccc3cc2O)cc1	177 to 178
COC(=O)COc1cccc2c(CCN=[N+]=[N-])coc12	95 to 97
CC(c1ccc(C(F)(F)F)cc1[N+](=O)[O-])[N+](=O)[O-] (stereo not given)	48
O=C(O)COc1cccc2c1Cc1sc(SCC=Cc3ccccc3)nc1-2	172 to 174
COc1cc(C)c(S(=O)(=O)NC(=S)Nc2nc(-c3ccc(C4CCCCC4)cc3)c(C)s2)c(C)c1	177 to 178

Compound	melting point [°C]
CCOC(=O)C1=C(C)Nc2nc(N)nc(N)c2C1c1ccc(OC)cc1 (stereo not given)	98
CCOC(=O)C(Sc1nc2cc(Cl)ccc2s1)c1ccccc1 (stereo not given)	62 to 64
CCc1c(N2CCC(N)CC2)c(F)cc2c(=O)c(C(=O)O)cn(C3CC3)c12	248 to 249
O=C(Nc1ccc(Cl)cc1)NC1N=C(c2ccccc2)c2ccccc2N(CC(=O)OCc2ccccc2)C1=O (stereo not given)	220 to 222
Cc1nc(-n2ccc(OCc3ccc(C(F)(F)F)o3)cc2=O)sc1C(=O)NCc1ccccc1	214 to 216
CCOc1ccc(-n2c(N)cc(=O)nc2Nc2ccccc2)cc1	114 to 118
CCCc1ccc2c(c1)C=Cc1sc(C)nc1C2c1cn(C)c(=O)[nH]c1=S (stereo not given)	235
CSc1nn2c(=O)cc(CCl)nc2s1	168 to 169
Cc1[nH]c(=O)c(C#N)cc1-c1csc(N)n1	294 to 296
CC(=O)c1oc2ccccc2c1NC(=O)/C(C#N)=C(/C)O	206 to 208
O=[N+]([O-])c1cc(Cl)c(Cl)cc1NC1CCC(O)C1O (stereo not given)	134 to 136
CCOc1ccc(C2C(=O)Oc3ccc(C)cc32)cc1 (stereo not given)	82 to 86
O=c1[nH]c2cc(Cl)ccc2n(O)c1=O	> 300
Cc1cc2ccccc2n1Nc1ccncc1F	157 to 158
CSc1nc(Cl)c(-c2ccc(C)cc2)c(Cl)n1	74 to 78
CCNC(=O)NC1CCCc2ccccc21 (stereo not given)	178 to 179
O=C1NC(=O)C(Br)(Cc2ccccc2)C(=O)N1	164 to 166
Cc1ccc(C(=O)Nc2c[nH]nc2C(=O)NCC(F)(F)F)cn1	218 to 219
Cc1c(O)cc(N)cc1C(=O)O	> 250
Nc1ccccc1NCCCCCCCCCCCCNc1ccccc1N	85 to 88
CCCCc1ccc(CN(CCC(C)(C)C)C(=O)Nc2c(C)cc(Cl)cc2C)cc1	138 to 139
CCCc1c(OCC(O)CSc2ccc(C(=O)CCC(=O)O)c(F)c2)ccc(C(C)=O)c1O (stereo not given)	136 to 137
CC(=O)OC1CC2=CCC3C4CCC(C(C)CI)C4(C)CCC3C2(C)C(OC(C)=O)C1 (stereo not given)	135 to 136
CSc1ccc(N2CCOC2=O)cc1[N+](=O)[O-]	180
CC(C)C(NC(=O)OCc1ccccn1)C(=O)NC(Cc1ccccc1)C(O)C(O)C(Cc1ccccc1)NC(=O)OC(C)(C)C (stereo not given)	202 to 204
